target: T1, human Edg-1 receptor (Homo sapiens, UniProt P21453); assay: GTP-γ-S assay using human Edg-1 receptors (scintillation proximity assay, membrane preparation from CHO Flp-In cell line); assay type: biochemical; details: example compound at 10 μM; relative to 10 μM S1P; GTP-γ-S SPA, human Edg-1 membranes
T1 construct: expressed in transfected cells; membrane preparation
From the text: Determination of the Pharmacological Activity A) GTP-γ-S Assay Using Human Edg-1 Receptors
In order to determine the Edg-1 receptor activation by the compounds of the invention, a GTP-γ-S (guanosine 5′-[γ-thio]triphosphate) assay for G-protein coupled receptor binding based on the scintillation proximity assay principle was used, employing a cell membrane preparation from a CHO Flp-In cell line which constitutively overexpresses the human Edg-1 receptor.
The Flp-In™ expression system (Invitrogen, cat. no. K6010-01) allows the generation of stable mammalian cell lines into which the gene of interest has been integrated through homologous recombination at a specific genomic location called Flp Recombination Target (FRT) site by means of a Flp recombinase encoded by the pOG44 expression plasmid. The integration of the pcDNA5/FRT expression construct into the Flp-In host cell line genome results in the transcription of the gene of interest. The stably transfected cells become hygromycin-resistant.
One day prior to transfection, 200 000 Flp-In-CHO cells were seeded in Ham F-12 medium (Invitrogen, cat. no. 31765) supplemented with 10% fetal calf serum (FCS; Perbio Science, cat. no. SH30068.03) in a 6-well plate and incubated at 37° C./5% CO2 overnight. Using the FuGENE® 6 transfection reagent (Roche, cat. no. 11988387001), cells were cotransfected with the Flp recombinase expression plasmid pOG44 and a modified plasmid additionally containing the edg-1 gene (accession no. NM_001400) termed as pcDNA5-FRT-TO_nFLAG_DEST-EDG-1 with a 9:1 ratio. To obtain the modified pcDNA5-FRT-TO_nFLAG_DEST plasmid, the Invitrogen plasmid pcDNA5/FRT/TO (Invitrogen, cat. no. V6520-20) was adapted to the Gateway® (Invitrogen) cloning system by inserting a Gateway cassette containing attR recombination sites flanking a ccdB gene and a chloramphenicol-resistance gene (Gateway conversion system, Invitrogen, cat. no. 11828-029). In addition a FLAG tag epitope was added before the 5′ att recombination site to allow recombinant expression of N-terminally FLAG-tagged proteins.
For the transfection of one well, 1.08 μg of pOG44 and 0.12 μg of pcDNA5-FRT-TO_nFLAG_DEST-EDG-1 were mixed to 100 μl of serum-free Ham F-12 medium containing 6 μl of FuGENE® 6 transfection reagent. After 20 min of incubation, the transfection reagent/DNA complex was distributed dropwise on the cells. The cells were incubated for 24 h at 37° C. Then the cells from 3 wells each were transferred to a T75 flask (Greiner Cellstar®, cat. no. 658175) containing Ham F-12 medium supplemented with 10% of FCS but without antibiotic and were incubated another 24 h. 48 h after transfection, the medium was replaced by selection medium (Ham F-12 supplemented with 10% of FCS and 300 μg/ml of hygromycin B (Invitrogen, cat. no. 10687-010)). The medium was exchanged every 2 to 3 days until a resistant population of cells had grown. […] After 2 weeks of selection, the cells were transferred into T175 flasks (Greiner Cellstar®, cat. no. 660175) and cultivated for batch production. Cells were harvested from the culture flasks by short treatment (2 to 5 min) with Accutase (PAA, cat. no. L11-007), resuspended in selection medium (see above) and centrifuged at 200×g for 5 min. Cells were resuspended in a mixture of 90% of FCS and 10% of dimethylsulfoxide and stored frozen in liquid nitrogen.
A membrane preparation was obtained by standard methods from the afore-described CHO Flp-In cell line constitutively overexpressing the human Edg-1 receptor. Briefly, the cryopreserved cells were taken in culture and grown until confluency in T175 cell culture flasks (Becton Dickinson, cat. no. 35 5001). […]

T1 sequence (P21453 whole entry): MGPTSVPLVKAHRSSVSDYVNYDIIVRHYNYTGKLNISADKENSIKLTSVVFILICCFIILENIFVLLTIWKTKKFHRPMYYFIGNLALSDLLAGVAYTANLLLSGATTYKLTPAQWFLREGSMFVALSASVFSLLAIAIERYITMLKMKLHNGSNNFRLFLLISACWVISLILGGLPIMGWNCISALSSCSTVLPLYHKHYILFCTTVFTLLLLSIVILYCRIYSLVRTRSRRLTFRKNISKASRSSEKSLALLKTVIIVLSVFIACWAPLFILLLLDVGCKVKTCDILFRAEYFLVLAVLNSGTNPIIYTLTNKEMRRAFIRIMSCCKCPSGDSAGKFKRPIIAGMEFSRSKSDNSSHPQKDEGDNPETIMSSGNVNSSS

Row | % Activation (Edg-1 receptor activation in percent of the activation by 10 μM S1P) | Structure (SMILES)
1 | 115% | CCCOc1nc(CN2CCC(F)(F)CC2)nc2oc(-c3ccc(Cl)c(F)c3)nc12 [Example 90]
2 | 96% | CCCOc1nc(CN2CCCOCC2)nc2oc(-c3ccc(Cl)c(F)c3)nc12 [Example 91]
3 | 106% | CCCOc1nc(CN2CCCOCC2)nc2oc(-c3ccc(OC)c(F)c3)nc12 [Example 92]
4 | 103% | CCCOc1nc(CN2CCC(F)(F)CC2)nc2oc(-c3ccc(OC)c(F)c3)nc12 [Example 93]
5 | 82% | CCCOc1nc(CN2CCC(C(F)(F)F)CC2)nc2oc(-c3cccc(F)c3)nc12 [Example 94]
6 | 105% | CCCOc1nc(CN2CCCC2(F)F)nc2oc(-c3cccc(F)c3)nc12 [Example 95]
7 | 121% | CCCOc1nc(CN2CCC(F)(F)CC2)nc2oc(-c3ccco3)nc12 [Example 96]
8 | 100% | CCCOc1nc(CN2CCCOCC2)nc2oc(-c3ccco3)nc12 [Example 97]
9 | 120% | CCCOc1nc(CN2CCC(F)(F)CC2)nc2oc(-c3ccc(Br)o3)nc12 [Example 98]
10 | 117% | CCCOc1nc(CN2CCCOCC2)nc2oc(-c3ccc(Br)o3)nc12 [Example 99]
11 | 88% | CCCOc1nc(Cc2ccc(Cl)cc2)nc2oc(-c3ccc(C)cc3)nc12 [Example 100]
12 | 91% | CCCOc1nc(Cc2ccc(Cl)cc2)nc2oc(-c3cccc(C)c3)nc12 [Example 101]
13 | 65% | CCCOc1nc(Cc2ccc(Cl)cc2)nc2oc(-c3ccco3)nc12 [Example 102]
14 | 85% | CCCOc1nc(Cc2ccc(Cl)cc2)nc2oc(-c3cccs3)nc12 [Example 103]
15 | 87% | Fc1cccc(-c2nc3c(OCC4CC4)nc(Cc4ccc(Cl)cc4)nc3o2)c1 [Example 104]
16 | 22% | Cc1cccc(-c2nc3c(OCCC(C)C)nc(Cc4ccc(Cl)cc4)nc3o2)c1 [Example 106]
17 | 73% | Cc1cccc(-c2nc3c(OC4CCCC4)nc(Cc4ccc(Cl)cc4)nc3o2)c1 [Example 107]
18 | 31% | CCCCOc1nc(Cc2ccc(Cl)cc2)nc2oc(-c3cccc(C)c3)nc12 [Example 108]
19 | 61% | C#CCOc1nc(Cc2ccc(Cl)cc2)nc2oc(-c3cccc(C)c3)nc12 [Example 109]
20 | 61% | Clc1ccc(Cc2nc(OC3CCCC3)c3nc(-c4ccco4)oc3n2)cc1 [Example 110]
21 | 57% | CCCCOc1nc(Cc2ccc(Cl)cc2)nc2oc(-c3ccco3)nc12 [Example 111]
22 | 66% | Fc1cccc(-c2nc3c(OC4CCCC4)nc(Cc4ccc(Cl)cc4)nc3o2)c1 [Example 112]
23 | 41% | Cc1ccc(-c2nc3c(OC4CCCC4)nc(Cc4ccc(Cl)cc4)nc3o2)cc1 [Example 113]
24 | 83% | Clc1ccc(Cc2nc(OC3CCCC3)c3nc(-c4cccs4)oc3n2)cc1 [Example 114]
25 | 33% | CCCCOc1nc(Cc2ccc(Cl)cc2)nc2oc(-c3cccs3)nc12 [Example 115]

same assay, conditions: example compound at 10 μM; relative to 10 μM S1P; GTP-γ-S SPA, human Edg-1 membranes; read-out: % Activation (Edg-1 receptor activation in percent of the activation by 10 μM S1P)

Row | activation at 10 µM | Structure (SMILES)
26 | 81% | Cc1cccc(-c2nc3c(OCC4CC4)nc(Cc4ccc(Cl)cc4)nc3o2)c1 [Example 105, 5-(4-chloro-benzyl)-7-cyclopropylmethoxy-2-(3-methyl-phenyl)-oxazolo[5,4-d]pyrimidine]

— patent US8735387B2, “Oxazolopyrimidines as Edg-1 receptor agonists” (Sanofi, priority 2008, dated 2014)
